# Reference: patent US20100291247A1, “OIL FORMULATIONS AND METHODS OF USE” (priority 2007, published 2010)
# Experiment: LC50 of vanillin MEC formulation (pathogen not named)
# Type: in vivo
# Conditions: ppm of Vanillin, applied as 15% MEC formulation; organism not given
# Text: The unit commonly used in the art to determine the effectiveness of the antipathogenic formulation is LC50. This number represents the concentration of formulation at which 50% of pathogens die.
smiles,measurement,value
"COc1cc(C=O)ccc1O [Vanillin, 4-Hydroxy-3-Methoxybenzaldehyde]",LC50,66 ppm
